Values quoted from earlier work as cited in patent US20120172289A1, “MULTIFUNCTIONAL GLYCOPEPTIDE ANTIBIOTIC DERIVATIVES FOR FLUORESCENT IMAGING AND PHOTOACTIVE ANTIMICROBIAL THERAPY” (NANYANG TECHNOLOGICAL UNIVERSITY, priority 2010, published 2012).

System: D-Ala-D-Lac
Conditions: mutation of peptidoglycan sequence in VRE

## CN[C@H](CC(C)C)C(=O)N[C@H]1C(=O)N[C@@H](CC(N)=O)C(=O)N[C@H]2C(=O)N[C@H]3C(=O)N[C@H](C(=O)N[C@H](C(=O)O)c4cc(O)cc(O)c4-c4cc3ccc4O)[C@H](O)c3ccc(c(Cl)c3)Oc3cc2cc(c3O[C@@H]2O[C@H](CO)[C@@H](O)[C@H](O)[C@H]2O[C@H]2C[C@](C)(N)[C@H](O)[C@H](C)O2)Oc2ccc(cc2Cl)[C@H]1O [Vancomycin]
  decrease of binding affinity, D-Ala-D-Ala to D-Ala-D-Lac: ~10^3 times
